The text below walks through data of publication PMC12292233, “Effects of 2-Hydroxypropyl-β-Cyclodextrin on the Antioxidant Efficiency of Some Gallic Acid Derivatives in Soybean Oil-in-Water Emulsions” (Antioxidants, 2025).

Details of data set [1]: method as in PMID 34037013, PMID 25180889, PMID 28248497. The following applies: based on oxygen uptake; ratio oleic:linoleic:linolenic; ref [25],[26],[27]; cited from earlier work.
Data set [2] can be described thus: DPPH radical scavenging activity of gallates in absence and presence of HPCD. The class given is biochemical. The note with it: values given as 10^6 × EC50, T = 25 ± 1 °C, reaction time 3600 s, aqueous citric acid/citrate (0.04 M, pH 3)-methanol 50:50 v/v. Here is the method: The radical scavenging activity of gallates was obtained by employing the free radical 2,2-diphenyl-1-pycrilhydrazyl DPPH^• and by following the method described by García-Perez et al.. The absorbance decrease in DPPH^• (λ= 515 nm) was monitored in the absence and the presence of CD for different concentrations of AOs ([AO] = […]) in an aqueous–methanolic solution (5:5, v/v) at T = 25 °C. […] The radical scavenging activity was measured in terms of the EC50 values, defined as the gallate concentration required to decrease DPPH^• radicals by half.
A general note: DPPH is a stable violet radical that fades when it is reduced.

Data set [3] can be described thus: Distribution of antioxidants in intact soybean oil-in-water emulsions (16-ArN2+ chemical probe, pseudophase kinetic model). The class given is physicochemical. The following applies: for PO^I, partition constant oil-interfacial / PW^I, partition constant water-interfacial / PW^I (app), partition constant water-interfacial: soybean oil-in-water emulsion, Tween 20, T = 25.0 °C; for order of percentage of AO in the interfacial region: at any particular ΦI value. Here is the method:
Emulsions contain three regions (oil, interface, and aqueous) with distinct solvent properties, and antioxidants are partitioned between them to different extents depending on their hydrophobicity (Figure 4). To prevent disturbance of the existing equilibria, the partition constants were evaluated in the intact emulsions using a well-established chemical method based on the reaction between a chemical probe, 4-hexadecylbenzenediazonium (16-ArN2^+), and the antioxidants. Kinetic results are then analyzed using a pseudophase kinetic model.
The method, along with its assumptions, advantages, and limitations, are described in detail elsewhere; only the relevant parts will be summarized here. 16-ArN2^+ is specifically designed as a water-insoluble chemical probe due to its long hydrophobic tail but with an ionic head group that makes it oil-insoluble. Thus, the reactive (-N2^+) group is located exclusively in the interfacial region. The rate of its reaction with the antioxidant depends on the effective concentration of the antioxidant in that region, which, in turn, depends on its distribution (Figure 4). The partition constants of the antioxidant between the water interfacial (PW^I) and the oil interfacial (PO^I) regions are described by Equations (10) and (11), respectively, where the magnitudes within parenthesis indicate the local concentrations given in moles per liter for a specific region.(10) PWI=(AOI)/(AOW) (11) POI=(AOI)/(AOO)
By employing the formalism of the pseudophase kinetic model, mathematical equations describing the relationships between the measured rate constant (kobs) for the reaction involving 16-ArN2^+ and the AOs and the partition constants can be derived, as was shown in our previous published work. Equation (12) was employed for the AOs, which are distributed between the three regions. Equation (12) can be simplified to Equation (13) for those antioxidants that only partition between the oil and the interfacial regions.(12) kobs=AOTkIPWIPOI/ΦOPWI+ΦIPWIPOI+ΦWPOI (13) kobs=kIAOTPOI/ΦIPOI+ΦO
With the partition constants known, the percentage of AOs at the interface can be determined, and the effective concentration of AOs in each region can be determined straightforwardly by employing Equations (14)–(16).(14) %AOI=100ΦIPWIPOI/ΦOPWI+ΦIPWIPOI+ΦWPOI (15) %AOI=100ΦIPOI/ΦIPOI+ΦO (16) (AOI)=%AOIAOT/ΦI
The application of the pseudophase kinetic model described above requires the determination of the variation in the observed rate constant (kobs) for the reaction between the chemical probe (16ArN2^+) and the antioxidants with the surfactant concentration. Because emulsions are opaque, a special protocol based on a derivatization method has been used to determine the kobs values. Briefly, unreacted arenediazonium ions were rapidly quenched by employing a suitable coupling agent (N-(1-naphthyl)ethylenediammine, NED), leading to the formation of a stable azo dye (Figure 5). The absorbance of the azo dye formed is proportional to the concentration of the unreacted 16ArN2^+ present in the reaction mixture. Further information regarding the experimental procedure is provided in a previous publication.
The kobs values were determined by fitting the absorbance–time data pairs to the pseudo-first-order kinetic equation (Equation (17), where At, A∞, and A0 stand for the absorbance values at time t, infinitive time, and zero time, respectively).(17) lnAt−A∞=lnA0−A∞−kobst
The distribution of the antioxidants in the intact emulsions was assessed through the analysis of the variation in the observed rate constants (kobs) for the reaction between the chemical probe 16-ArN2^+ and the AOs with the emulsifier volume fraction ΦI (Figure 9). Details of this method can be found elsewhere. For all AOs, kobs values decrease asymptotically 3–6 times upon increasing ΦI from ΦI = 0.005 to ΦI = 0.039. […]

Data set [4] is described as follows: Partition constant in soybean oil-water binary mixtures. The class given is physicochemical. The following applies: T = 25.0 °C. How it is done:
Table 2 Partition constants values in soybean oil–water binary mixtures (PW^O) and in soybean oil-in-water emulsions (PW^I and PO^I) for gallates in the absence and the presence of HP-CD; T = 25.0 °C.

A short description of data set [5]: Kinetics of lipid oxidation (conjugated dienes, AOCS Ti 1a 64) in soybean oil-in-water emulsions. The following applies: T = 60 °C; for relative efficiency order in inhibiting lipid peroxidation: 1:9 O/W emulsion, time to 0.5% increase in conjugated dienes; for relative efficiency order in inhibiting lipid peroxidation / effect of addition of HPCD on oxidative stability of the emulsion loaded with the antioxidant: ΦI = 0.008, [AO] = 0.1 mM. How it is done: The 1:9 oil-in-water emulsions were prepared by mixing 1 mL of stripped soybean oil and 9 mL of buffered aqueous solution (citric–citrate buffer 0.04 M pH 3.0) and different amounts of the surfactant Tween 20 (ΦI = Vsurfactant/Vemulsion = 0.005 − 0.04). Emulsions prepared without antioxidants were used as controls. In the others, the antioxidants GA, PG, OG, and LG were added to the aqueous (GA, PG) or oil (OG, LG) phases. The mixtures were stirred for at least 60 s at 20000 rpm at room temperature by employing a high-speed rotor (Polytron PT 1600 E, Kinematica, Fisher Scientific S.L., Madrid, Spain). All emulsions were prepared in triplicate and reported values are average.
The kinetics of the lipid peroxidation of soybean oil-in-water emulsions were monitored by determining the variation in the formation of conjugated dienes (CDs) with time according to the AOCS Official Method Ti 1a 64 in both the absence (control) and the presence of antioxidants (stoichiometric [AO] = 10^−4 M). Briefly, 1:9 O/W emulsions (ΦI = 0.008) were transferred to 25 mL screw-capped erlenmeyer flasks and were placed in an orbital shaker (Incubator Heidolph 1000 orbital stirrer, Heidolph Scientific Products GmbH, Schwabach, Germany) equipped with a Heidolph thermostat 1010 to the control temperature at 148 rpm and T = 60 °C (±1 °C) in the dark.
Aliquots (25 µL) of the emulsions were removed periodically and diluted to 10 mL with 2-propanol, and the absorbance was measured at λ = 233 nm. The percentage of conjugated dienes (%CD) was determined, as described in the literature, by employing Equation (18), where Coil stands for the concentration of soybean oil in the total volume of the emulsion (density for soybean oil = 0.93 g/mL; T = 25 °C).(18) %CD=1.0769A233nm/Coil(g/L)
The relative efficiency of the antioxidants under the different experimental conditions was quantified by measuring the time needed to increase the CD content by 0.5% (dashed line in Figure 7). We have previously shown that these values are equal to those for the induction period determined from the intersection point of the two linear segments defining the inhibited and uninhibited (propagation) steps [28].

Data set [6] is described as follows: Water solubility (statement). It counts as physicochemical.

Regarding `CCCCC/C=C\C/C=C\CCCCCCCC(=O)O` [linoleic, linoleic acid], in data set [1], the relative oxidation rate is given as approximately 70.

For `O=C(O)c1cc(O)c(O)c(O)c1` [GA, gallic acid], the EC50 in data set [2] (0 M HPCD) was determined as 8.36 ± 0.28 µM; in data set [2] (1.1·10^−2 M HPCD), 7.84 ± 0.08 µM.

Consider `CCCOC(=O)c1cc(O)c(O)c(O)c1` [PG, Propyl gallate], for which, in data set [3] ([HPCD] = 0), the “PO^I, partition constant oil-interfacial” value was 450 ± 26 and the “PW^I, partition constant water-interfacial” value is given as 382 ± 18. In addition, in data set [3] ([HPCD] = 0.013 M), the “PO^I, partition constant oil-interfacial” value was 371 ± 15 and the “PW^I (app), partition constant water-interfacial” value came to 315 ± 14. Also, the “order of percentage of AO in the interfacial region” value (shortened to “order of percentage of AO”) in data set [3] is “%BGI > %PGI > %LGI ≈ %OGI”. In addition, the “PW^O, partition constant” value in data set [4] worked out at 0.85 ± 0.01. Further, the EC50 in data set [2] (0 M HPCD) is 6.09 ± 0.12 µM. For the same compound, in data set [2] (1.1·10^−2 M HPCD), the EC50 turned out to be 5.57 ± 0.01 µM. For the same compound, the “relative efficiency order in inhibiting lipid peroxidation” value in data set [5] is “LG ≈ OG < PG < < BG”. For the same compound, the “effect of addition of HPCD on oxidative stability of the emulsion loaded with the antioxidant” value (“effect of addition of HPCD” below) in data set [5] ([HP-CD] = 0.013 M) is listed as “decreases the oxidative stability slightly”.

Consider `CC/C=C\C/C=C\C/C=C\CCCCCCCC(=O)O` [linolenic, linolenic acid], for which the relative oxidation rate in data set [1] is approximately 100.

In the case of `CCCCCCCC/C=C\CCCCCCCC(=O)O` [oleic, oleic acid], the relative oxidation rate result in data set [1] is on record as “approximately 1”.

Take 2-Hydroxypropyl-β-cyclodextrin [HPCD]: the “effect on the kinetics of oxidation in absence of antioxidants” value in data set [5] (1:9 soybean emulsions without antioxidant, [HP-CD] = 0.013 M) is recorded as “no effect”.

Consider `CCCCOC(=O)c1cc(O)c(O)c(O)c1` [BG, butyl gallate], for which the “PO^I, partition constant oil-interfacial” value is recorded as 238 ± 8 in data set [3] ([HPCD] = 0) and 174 ± 9 in data set [3] ([HPCD] = 0.013 M). Besides, in data set [3] ([HPCD] = 0), the “PW^I, partition constant water-interfacial” value is 772 ± 33. The “PW^I (app), partition constant water-interfacial” value in data set [3] ([HPCD] = 0.013 M) is given as 565 ± 9. The “order of percentage of AO” value in data set [3] was “%BGI > %PGI > %LGI ≈ %OGI”. The “PW^O, partition constant” value in data set [4] is 3.25 ± 0.03. Moreover, the EC50 in data set [2] (0 M HPCD) came out at 6.02 ± 0.03 µM; in data set [2] (1.1·10^−2 M HPCD), 5.35 ± 0.04 µM. For the same compound, the figures for the “relative efficiency order in inhibiting lipid peroxidation” value in data set [5] and in data set [5] (listed as butyl gallate) were “LG ≈ OG < PG < < BG” and “highest antioxidant efficiency”, respectively. In addition, in data set [5] ([HP-CD] = 0.013 M), the “effect of addition of HPCD” value was “decreases the oxidative stability slightly”.

Regarding `CCCCCCCCCCCCOC(=O)c1cc(O)c(O)c(O)c1` [LG, lauryl gallate], the “PO^I, partition constant oil-interfacial” value was 27 ± 9 in data set [3] ([HPCD] = 0) and 25 ± 2 in data set [3] ([HPCD] = 0.013 M). Moreover, the “order of percentage of AO” value in data set [3] was “%BGI > %PGI > %LGI ≈ %OGI”. Besides, the solubility in water result in data set [6] is listed as “water insoluble”. In addition, the “relative efficiency order in inhibiting lipid peroxidation” value in data set [5] is reported as “LG ≈ OG < PG < < BG”. Further, the “effect of addition of HPCD” value in data set [5] ([HP-CD] = 0.013 M) is on record as “negligible effect”.

Take `CCCCCCCCOC(=O)c1cc(O)c(O)c(O)c1` [OG, octyl gallate]: the “PO^I, partition constant oil-interfacial” value in data set [3] ([HPCD] = 0) turned out to be 26 ± 7; in data set [3] ([HPCD] = 0.013 M), 25 ± 5. Further, the “order of percentage of AO” value in data set [3] is “%BGI > %PGI > %LGI ≈ %OGI”. Further, the EC50 in data set [2] (0 M HPCD) worked out at 9.02 ± 1.05 µM; in data set [2] (1.1·10^−2 M HPCD) it was 8.27 ± 0.2 µM. Further, the solubility in water entry in data set [6] is on record as “water insoluble”. Moreover, in data set [5], the “relative efficiency order in inhibiting lipid peroxidation” value is given as “LG ≈ OG < PG < < BG”. Moreover, in data set [5] ([HP-CD] = 0.013 M), the “effect of addition of HPCD” value is listed as “negligible effect”.

The term EC50 denotes the concentration at which the effect is half-maximal.
